From ChEMBL document CHEMBL4602626, “Structure activity relationship, 6-modified purine riboside analogues to activate hSTING, stimulator of interferon genes” (Bioorg Med Chem Lett, 2020)
The source made the active and inactive calls. The calls are words filed in the database; no cut-off is given here.

How the values were obtained:
Format in all cases: cell-based
[1] = biological target: Stimulator of interferon genes protein (Homo sapiens) (UniProt Q86WV6); assay: Activation of human STING expressed in monocytes co-expressing IFN assessed as alkaline phosphatase secretion by SEAP reporter gene assay
[2] = biological target: Stimulator of interferon genes protein (Homo sapiens) (UniProt Q86WV6); assay: Activation of human STING expressed in monocytes co-expressing IFN assessed as alkaline phosphatase secretion in presence of adenosine deaminase inhibitor erytftro-9-(2-hydroxy-3-nonyl) adenine by SEAP reporter gene assay
[3] = biological target: Stimulator of interferon genes protein (Homo sapiens) (UniProt Q86WV6); assay: Activation of human STING expressed in monocytes co-expressing IFN assessed as alkaline phosphatase secretion in presence of adenosine kinase inhibitor 5-iodotubercidin by SEAP reporter gene assay

Sequence of Stimulator of interferon genes protein (Homo sapiens) (Q86WV6 whole entry): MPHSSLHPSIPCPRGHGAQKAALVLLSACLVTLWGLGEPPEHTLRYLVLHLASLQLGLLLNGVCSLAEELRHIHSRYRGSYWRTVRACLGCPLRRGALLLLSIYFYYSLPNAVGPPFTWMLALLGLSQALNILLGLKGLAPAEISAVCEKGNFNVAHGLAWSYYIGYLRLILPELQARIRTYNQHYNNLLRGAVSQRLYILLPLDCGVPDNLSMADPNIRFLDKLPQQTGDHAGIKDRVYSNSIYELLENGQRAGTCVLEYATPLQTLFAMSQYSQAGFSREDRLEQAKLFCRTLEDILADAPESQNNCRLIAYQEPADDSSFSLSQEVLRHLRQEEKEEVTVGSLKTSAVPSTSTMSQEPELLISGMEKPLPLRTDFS

SMILES | Activity [1] | Activity [2] | Activity [3]
CN(C)/C=N/c1nc2c(ncn2[C@@H]2O[C@H](CO)[C@@H](O)[C@H]2O)c(=O)[nH]1 | inactive |  | 
CCOc1ncnc2c1ncn2[C@H]1C[C@H](O)[C@@H](CO)O1 | inactive |  | 
CCCOc1ncnc2c1ncn2[C@@H]1O[C@H](CO)[C@@H](O)[C@H]1O | Active |  | 
CCOc1ncnc2[nH]cnc12 | inactive |  | 
CCCCC(=O)OC[C@H]1O[C@@H](n2cnc3c(OCC)ncnc32)[C@H](O)[C@@H]1O | Active |  | 
OC[C@H]1O[C@@H](n2cnc3c(OCC(F)F)ncnc32)[C@H](O)[C@@H]1O | Active |  | 
OC[C@H]1O[C@@H](n2cnc3c(OCc4ccccc4)ncnc32)[C@H](O)[C@@H]1O | inactive |  | 
CCOc1ncnc2c1ncn2[C@@H]1O[C@H](COP(=O)(N[C@@H](C)C(=O)OC(C)C)Oc2ccccc2)[C@@H](O)[C@H]1O (some centres undefined) | Active |  | 
OC[C@H]1O[C@@H](n2cnc3c(NCc4ccc(-c5ccccc5)cc4)ncnc32)[C@H](O)[C@@H]1O | Active |  | 
CN(C)/C=N/c1ccn([C@@H]2O[C@H](CO)[C@@H](O)[C@H]2O)c(=O)n1 | inactive |  | 
CCNc1ncnc2c1ncn2[C@@H]1O[C@H](CO)[C@@H](O)[C@H]1O | Active |  | 
CC(C)Oc1ncnc2c1ncn2[C@@H]1O[C@H](CO)[C@@H](O)[C@H]1O | inactive |  | 
C=CCNc1ncnc2c1ncn2[C@@H]1O[C@H](CO)[C@@H](O)[C@H]1O | Active |  | 
CN(C)/C=N/c1ncnc2[nH]cnc12 | inactive |  | 
CCOc1nc(N)nc2c1ncn2[C@@H]1O[C@H](CO)[C@@H](O)[C@H]1O | inactive |  | 
CN(C)/C=N/c1ncnc2c1ncn2[C@@H]1O[C@H](CO)[C@@H](O)[C@H]1O | Active |  | 
CCOc1ncnc2c1ncn2[C@@H]1O[C@H](COC(=O)[C@@H](N)C(C)C)[C@@H](O)[C@H]1O | Active |  | 
CCCCC(=O)OC[C@H]1O[C@@H](n2cnc3c(OCC)ncnc32)[C@H](OC(=O)CCCC)[C@@H]1OC(=O)CCCC | Active |  | 
CCOc1ncnc2c1ncn2[C@@H]1O[C@H](COC(=O)C(C)C)[C@@H](OC(=O)C(C)C)[C@H]1OC(=O)C(C)C | Active |  | 
CN(C)/C=N/c1ncnc2c1ncn2[C@H]1C[C@H](O)[C@@H](CO)O1 | inactive |  | 
OC[C@H]1O[C@@H](n2cnc3c(NCc4ccccc4)ncnc32)[C@H](O)[C@@H]1O | Active |  | 
CC(C)CNc1ncnc2c1ncn2[C@@H]1O[C@H](CO)[C@@H](O)[C@H]1O | Active |  | 
CCOc1ncnc2c1ncn2[C@@H]1O[C@H](CO)[C@@H](O)[C@H]1O | Active | Active | inactive
CN(C)CCNc1ncnc2c1ncn2[C@@H]1O[C@H](CO)[C@@H](O)[C@H]1O | Active |  | 
COCCNc1ncnc2c1ncn2[C@@H]1O[C@H](CO)[C@@H](O)[C@H]1O | Active |  | 
OC[C@H]1O[C@@H](n2cnc3c(OCC(F)(F)F)ncnc32)[C@H](O)[C@@H]1O | Active |  | 
COc1ncnc2c1ncn2[C@@H]1O[C@H](CCl)[C@@H](O)[C@H]1O | inactive |  | 
